Source: patent US20100179188A1, “NITROXIDE RADICAL AS TREATMENT FOR NEURODEGENERATION” (Office of Technology Transfer, NIH, priority 2007, published 2010)

Tests used:
IRP1 [1] = target: T1, IRP1 (Mus musculus, UniProt P28271); assay: Gel-shift of IRP1 in wild type and IRP2−/− mouse embryonic fibroblasts after Tempo1 or DFO and washout; type: cell-based; design: Embryonic fibroblasts of 13-day old embryos were isolated from wild type, IRP1−/− mice and IRP2−/− mice; endogenous in cells; host or cells: mouse embryonic fibroblasts (wild type and IRP2−/−); settings: wild type and IRP2−/− mouse embryonic fibroblasts treated 16 hours
T1 sequence (P28271 1-889): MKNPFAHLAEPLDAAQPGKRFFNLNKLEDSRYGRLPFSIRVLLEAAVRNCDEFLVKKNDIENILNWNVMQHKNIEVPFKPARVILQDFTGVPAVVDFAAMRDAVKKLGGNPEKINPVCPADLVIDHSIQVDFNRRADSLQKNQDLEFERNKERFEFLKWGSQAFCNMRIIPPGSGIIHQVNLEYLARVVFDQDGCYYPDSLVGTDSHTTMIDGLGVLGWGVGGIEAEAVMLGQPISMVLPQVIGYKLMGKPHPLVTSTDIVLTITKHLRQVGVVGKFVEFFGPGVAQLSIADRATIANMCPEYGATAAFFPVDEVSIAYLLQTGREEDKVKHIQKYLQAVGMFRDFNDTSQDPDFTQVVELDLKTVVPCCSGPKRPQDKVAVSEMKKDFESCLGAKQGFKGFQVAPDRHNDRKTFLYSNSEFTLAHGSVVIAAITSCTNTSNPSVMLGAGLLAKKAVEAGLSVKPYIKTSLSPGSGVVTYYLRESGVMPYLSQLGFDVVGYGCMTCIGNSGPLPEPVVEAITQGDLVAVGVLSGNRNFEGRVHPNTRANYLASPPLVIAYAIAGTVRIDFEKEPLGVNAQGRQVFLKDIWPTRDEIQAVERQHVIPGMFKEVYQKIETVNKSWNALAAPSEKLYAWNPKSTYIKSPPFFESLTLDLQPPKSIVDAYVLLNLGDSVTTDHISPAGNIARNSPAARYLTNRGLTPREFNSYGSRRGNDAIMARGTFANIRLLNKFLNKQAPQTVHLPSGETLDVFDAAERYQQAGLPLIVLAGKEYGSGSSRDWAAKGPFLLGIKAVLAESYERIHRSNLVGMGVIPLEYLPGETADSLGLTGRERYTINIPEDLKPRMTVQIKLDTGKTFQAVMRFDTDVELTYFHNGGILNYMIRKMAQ
Method: (§1) Cells: Embryonic fibroblasts of 13-day old embryos were isolated from wild type, IRP1−/− mice and IRP2−/− mice as described in LaVaute et al. supra. Myc-tagged HEK 293 Tet-on cell line, in which IRP2 expression was inducible, was prepared and cultured as described Bourdon et al., Blood Cells Mol Dis, 31, 247-255 (2003). Erythroblasts were harvested from bone marrow and purified as described in Cooperman et al., Blood, 106, 1084-1091 (2005).
(§2) RNA mobility shift assays: Gel retardation assays were performed as described in Meyron-Holtz et al., EMBO J, 23, 386-395 (2004). Tissue lysates were prepared in an anaerobic chamber as described above in oxygen-depleted lysis buffer containing 10 mM HEPES (pH 7.2), 3 mM MgC12, 40 mM KCl, 5% glycerol, 0.2% Nonidet P-40, 5 mM DTT, 1 mM AEBSF, 10 μg/ml. Leupeptin and complete TM EDTA free protease inhibitor cocktail (Roche Applied Science, Indiana). Lysate (x μl) containing 10 μg of total protein was added to (12.5−x) μl of bandshift buffer containing 25 mM Tris-HCl (pH 7.5) and 40 mM KCl. The samples were incubated for 5 min at room temperature (RT) with 12.5 μl of a reaction cocktail containing 20% glycerol, 0.2 U/μl Super RNAsine (Ambion, Tex.), 0.6 μg/μl yeast t-RNA, 5 mM DTT and 20 nM 32P-labelled IRE from human ferritin H-chain gene in 25 mM Tris-HCl (pH 7.5) and 40 mM KCl. A measure of 20 μl of this reaction mixture was loaded into a 10% acrylamide/TBE gel, which was run at 200 V for 2.15 h, and then the gel was fixed, dried and exposed for autoradiography.
(§3) To determine whether the effect of Tempo1 on IRP1 activity was kinetically consistent with oxidative disassembly of the iron sulfur cluster, the effect of Tempo1 on aconitase activity was compared to that of the iron chelator, deferiprone (DFO), which activates IRE-binding activity of IRP1 by limiting de novo synthesis and repair of the iron sulfur cluster in IRP1. […] Recovery of aconitase activity was assessed in wild type and IRP2−/− cells.

cytosolic aconitase = target: T2, cytosolic aconitase (Mus musculus, UniProt P28271); assay: In-gel aconitase assay in mouse embryonic fibroblast lysates, cytosolic aconitase; type: cell-based; settings: assessed 8 hours after removal; mouse embryonic fibroblasts treated 16 hours
T2 construct: Embryonic fibroblasts of 13-day old embryos were isolated from wild type, IRP1−/− mice and IRP2−/− mice; endogenous in cells; host or cells: mouse embryonic fibroblasts (wild type and IRP2−/−)
T2 sequence (P28271 1-889): T1 sequence (P28271 1-889)
Method: as §1
Aconitase assay: Aconitase activity gels for human lysates were performed as described in Tong et al., infra, and aconitase activity gels for mouse lysate were performed with the following modifications. The gel was composed of a separating gel containing 6% acrylamide, 132 mM Tris base, 66 mM borate, 3.6 mM citrate, and a stacking gel containing 4% acrylamide, 66 mM Tris base, 33 mM borate, 3.6 mM citrate. The running buffer contains 25 mM Tris pH 8.3, 96 mM glycine, and 3.6 mM citrate. Electrophoresis were carried out at 170 V at 4° C. Spectral aconitase activity was measured by following the method of Fillebeen et al., infra, using cis-aconitate as the substrate.
To confirm that nitroxide radicals activate IRP1 binding by disassembly of the iron-sulfur cluster, we performed in-gel aconitase assays to determine whether Tempo1 decreased the activity of cytosolic aconitase. […] The band that represented the cytosolic aconitase was readily identified by its absence in lysates from IRP1−/− cells. […]
as §3

IRP1 [2] = target: T1, IRP1; assay: Gel-shift of brain lysates treated with β-mercaptoethanol; type: biochemical, mice; design: Lysates made from various brain regions of IRP2−/− mice; from tissue; host or cells: mouse brain (cerebellum, forebrain, brain-stem) lysates; settings: FIG. 7a
Method: Tissue and lysate preparation: Animals were euthanized and tissues were frozen in liquid nitrogen immediately after harvesting, and stored at −80° C. under argon. Experiments were performed on tissues that were pulverized in liquid N2-cooled mortars in an anaerobic chamber, and then lysed in lysis buffer that was deaerated by cyclic freezethaw and air-removal with argon. Nuclei and debris were removed by centrifugation. Preparations of lysates for assays of IRP1 activity, western blotting, carbonyl assay and protein analysis were performed anaerobically.
RNA mobility shift assays: Gel retardation assays were performed as described in Meyron-Holtz et al., EMBO J, 23, 386-395 (2004). Tissue lysates were prepared in an anaerobic chamber as described above in oxygen-depleted lysis buffer containing 10 mM HEPES (pH 7.2), 3 mM MgC12, 40 mM KCl, 5% glycerol, 0.2% Nonidet P-40, 5 mM DTT, 1 mM AEBSF, 10 μg/ml. Leupeptin and complete TM EDTA free protease inhibitor cocktail (Roche Applied Science, Indiana). Lysate (x μl) containing 10 μg of total protein was added to (12.5−x) μl of bandshift buffer containing 25 mM Tris-HCl (pH 7.5) and 40 mM KCl. […]

IRP1 [3] = target: T1, IRP1; assay: Gel-shift of erythroblasts treated with β-mercaptoethanol; type: biochemical; design: Lysates made from various brain regions of IRP2−/− mice; from tissue; host or cells: mouse brain (cerebellum, forebrain, brain-stem) lysates; settings: erythroblasts from wild type mice, high concentrations
Method: as §1
as §2, with “A measure of 20 μl of this reaction mixture was loaded into a 10% acrylamide/TBE gel, which was run at 200 V for 2.15 h, and then the gel was fixed, dried and exposed for autoradiography.” left out

Compound | IRE-binding activity of IRP1 (IRP1 [1]) | recovery of cytosolic aconitase activity (cytosolic aconitase) | IRE binding activity recruited (IRP1 [2]) | additional IRE binding activity of IRP1 (IRP1 [3])
Cc1c(O)c(=O)ccn1C [DFO, deferiprone, reference compound] | activated | little recovery |  | 
OCCS [β-mercaptoethanol] |  |  | significant increases | did not activate additional
